Measurements taken from the CheMixHub viscosity set.

Experiment: xn = mol fraction of the nth substance listed

NCCO.O=CO + CC(C)(N)CO
viscosity [mPa·s], 100 kPa
Conditions | x1 = 0.1475 | x1 = 0.2287 | x1 = 0.3157 | x1 = 0.409 | x1 = 0.5093 | x1 = 0.6175 | x1 = 0.7346
298.15 K | 170.6 | 165.1 | 148.3 | 126.5 | 107.4 | 84.75 | 64.21
303.15 K | 118.8 | 113 | 103.2 | 90.68 | 78.55 | 62.99 | 49.24
308.15 K | 82.33 | 79.18 | 74.33 | 66.23 | 58.35 | 47.99 | 38.25
313.15 K | 58.68 | 57.28 | 54.44 | 49.47 | 44.41 | 37.11 | 30.16
318.15 K | 42.89 | 42.1 | 40.82 | 37.69 | 34.31 | 29.35 | 24.25
323.15 K | 31.84 | 31.65 | 31.24 | 29.32 | 27.04 | 23.55 | 19.78

Cc1ccc(C)cc1 + CC(C)=O
307.35 K, 101.33 kPa
Conditions | viscosity [mPa·s]
x2 = 0.1403 | 0.5
x2 = 0.4308 | 0.429
x2 = 0.5768 | 0.4
x2 = 0.6298 | 0.385
x2 = 0.7285 | 0.353
x2 = 0.9118 | 0.311

OCCOCCO + CC(C)=O
298.1 K, 101 kPa
Conditions | viscosity [mPa·s]
x1 = 0.2 | 0.682
x1 = 0.4 | 1.669
x1 = 0.5 | 2.655
x1 = 0.6 | 4.301
x1 = 0.8 | 11.1

Cc1ccc(C)cc1 + CC(C)CC(C)(C)C
308.15 K, 101 kPa
Conditions | viscosity [mPa·s]
x2 = 0.072 | 0.5266
x2 = 0.1401 | 0.5074
x2 = 0.2197 | 0.4893
x2 = 0.3074 | 0.4732
x2 = 0.4051 | 0.4595
x2 = 0.507 | 0.4479
x2 = 0.6185 | 0.44
x2 = 0.7382 | 0.4348
x2 = 0.8619 | 0.4333

O=Cc1ccccc1 + CC(C)CCO
298.1 K, 101 kPa
Conditions | viscosity [mPa·s]
x1 = 0.1103 | 2.842
x1 = 0.202 | 2.39
x1 = 0.2988 | 2.057
x1 = 0.3333 | 1.959
x1 = 0.4051 | 1.809
x1 = 0.4839 | 1.67
x1 = 0.6101 | 1.51
x1 = 0.6944 | 1.44
x1 = 0.7979 | 1.373
x1 = 0.8987 | 1.34

CC(C)CCCC(C)CCCC(C)CCCCC(C)CCCC(C)CCCC(C)C (stereo unspecified) + CC(C)CO
101 kPa
Conditions | viscosity [mPa·s]
298.15 K, x2 = 0.1032 | 22.85
308.15 K, x2 = 0.1672 | 13.45

CCCC[N+](CCCC)(CCCC)CCCC.[Cl-] + CC(C)C[C@H](N)C(=O)O
Conditions | viscosity [mPa·s]
313.15 K, 100 kPa, x1 = 0.9 | 943

CC(C)CCCC(C)CCCC(C)CCCCC(C)CCCC(C)CCCC(C)C (stereo unspecified) + CC(C)O
viscosity [mPa·s], 101 kPa
Conditions | x2 = 0.0621 | x2 = 0.218 | x2 = 0.4022
298.15 K | – | 19.65 | –
303.15 K | 18.75 | 15.45 | 13.05

C[N+](C)(C)CCO.[Cl-] + CC(O)CO
Conditions | viscosity [mPa·s]
293.15 K, 100 kPa, x1 = 0.25 | 89.38
293.15 K, 101 kPa, x2 = 0.8 | 95.09
293.15 K, 101.3 kPa, x2 = 0.7498 | 94.05
293.15 K, 101.3 kPa, x2 = 0.8003 | 80.19
293.15 K, 101.3 kPa, x2 = 0.8328 | 73.34
293.15 K, 101.3 kPa, x2 = 0.8567 | 70.57
298 K, 100 kPa, x1 = 0.333 | 95.5
298 K, 101.3 kPa, x1 = 0.333 | 70
298.15 K, 100 kPa, x1 = 0.25 | 68.43
298.15 K, 101.3 kPa, x2 = 0.7498 | 72.1
298.15 K, 101.3 kPa, x2 = 0.8003 | 61.49
298.15 K, 101.3 kPa, x2 = 0.8328 | 57.12
298.15 K, 101.3 kPa, x2 = 0.8567 | 55.1
298.15 K, 101.33 kPa, x2 = 0.7 | 36
303 K, 100 kPa, x1 = 0.333 | 74.2
303.15 K, 100 kPa, x1 = 0.25 | 53.34
303.15 K, 101 kPa, x2 = 0.8 | 56.64
303.15 K, 101.3 kPa, x2 = 0.7498 | 56.26
303.15 K, 101.3 kPa, x2 = 0.8003 | 47.74
303.15 K, 101.3 kPa, x2 = 0.8328 | 44.41
303.15 K, 101.3 kPa, x2 = 0.8567 | 43.01
308 K, 100 kPa, x1 = 0.333 | 57.6
308.15 K, 100 kPa, x1 = 0.25 | 42.26
308.15 K, 101.3 kPa, x2 = 0.7498 | 44.5
308.15 K, 101.3 kPa, x2 = 0.8003 | 37.47
308.15 K, 101.3 kPa, x2 = 0.8328 | 34.61
308.15 K, 101.3 kPa, x2 = 0.8567 | 33.33
313 K, 100 kPa, x1 = 0.333 | 46.2
313.15 K, 100 kPa, x1 = 0.25 | 33.93
313.15 K, 101 kPa, x2 = 0.8 | 36.06
313.15 K, 101.3 kPa, x2 = 0.7498 | 35.89
313.15 K, 101.3 kPa, x2 = 0.8003 | 30.4
313.15 K, 101.3 kPa, x2 = 0.8328 | 27.67
313.15 K, 101.3 kPa, x2 = 0.8567 | 26.42
318 K, 100 kPa, x1 = 0.333 | 37.9
318.15 K, 100 kPa, x1 = 0.25 | 27.71
318.15 K, 101.3 kPa, x2 = 0.7498 | 29.15
318.15 K, 101.3 kPa, x2 = 0.8003 | 24.7
318.15 K, 101.3 kPa, x2 = 0.8328 | 22.49
318.15 K, 101.3 kPa, x2 = 0.8567 | 21.11
323 K, 100 kPa, x1 = 0.333 | 31.8
323 K, 101.3 kPa, x1 = 0.333 | 19
323.15 K, 100 kPa, x1 = 0.25 | 22.88
323.15 K, 101 kPa, x2 = 0.8 | 24.26
323.15 K, 101.3 kPa, x2 = 0.7498 | 24.25
323.15 K, 101.3 kPa, x2 = 0.8003 | 20.43
323.15 K, 101.3 kPa, x2 = 0.8328 | 18.56
323.15 K, 101.3 kPa, x2 = 0.8567 | 17.41

Cc1ccc(C)cc1 + CCC(C)O
308.15 K, 101 kPa
Conditions | viscosity [mPa·s]
x2 = 0.0429 | 0.553
x2 = 0.1028 | 0.562
x2 = 0.2013 | 0.591
x2 = 0.3192 | 0.645
x2 = 0.4044 | 0.721
x2 = 0.5085 | 0.792
x2 = 0.6631 | 0.932
x2 = 0.7494 | 1.111
x2 = 0.8285 | 1.32
x2 = 0.9012 | 1.61
x2 = 0.9684 | 1.782

CC(C)CCCC(C)CCCC(C)CCCCC(C)CCCC(C)CCCC(C)C (stereo unspecified) + CCCC
viscosity [mPa·s]
Conditions | x1 = 0.161 | x1 = 0.162 | x1 = 0.316 | x1 = 0.319 | x1 = 0.555 | x1 = 0.559 | x1 = 0.721 | x1 = 0.724
293.15 K, 101 kPa | 1.06 | – | 3 | – | 9.55 | – | 16.5 | –
293.15 K, 101.33 kPa | 1.06 | – | 3 | – | 9.55 | – | 16.5 | –
313.15 K, 101 kPa | – | 0.797 | – | 2.04 | – | 5.26 | – | 8.16
313.15 K, 101.33 kPa | – | 0.797 | – | 2.04 | – | 5.26 | – | 8.16

CC(C)CCCC(C)CCCC(C)CCCCC(C)CCCC(C)CCCC(C)C (stereo unspecified) + CCCCCC
viscosity [mPa·s]
Conditions | 293.15 K | 298.15 K | 313.15 K
100 kPa, x1 = 0.235 | 1.91 | – | 1.36
100 kPa, x1 = 0.511 | 7.76 | – | 4.15
100 kPa, x1 = 0.743 | 17.5 | – | 8.25
101 kPa, x1 = 0.129 | 0.972 | – | 0.739
101 kPa, x1 = 0.268 | 2.45 | – | 1.63
101 kPa, x1 = 0.469 | 6.3 | – | 3.62
101 kPa, x1 = 0.5661 | – | 10.15 | –
101 kPa, x1 = 0.762 | 18.3 | – | 8.84
101.33 kPa, x1 = 0.129 | 0.972 | – | 0.739
101.33 kPa, x1 = 0.268 | 2.45 | – | 1.63
101.33 kPa, x1 = 0.469 | 6.3 | – | 3.62
101.33 kPa, x1 = 0.762 | 18.3 | – | 8.84

CCCCCCCCCCCCCCCCCC(=O)OC + CCCCCC
viscosity [mPa·s], 101 kPa
Conditions | x1 = 0.05 | x1 = 0.1 | x1 = 0.15 | x1 = 0.2 | x1 = 0.25 | x1 = 0.3
298 K | 0.48 | 0.67 | 0.85 | 1.08 | 1.22 | 1.41
303 K | 0.46 | 0.63 | 0.79 | 0.99 | 1.13 | 1.3
308 K | 0.44 | 0.59 | 0.74 | 0.92 | 1.05 | 1.21
313 K | 0.42 | 0.55 | 0.69 | 0.85 | 0.98 | 1.12
